Experimental data reported in the NIST ThermoML archive (doi:10.1021/je700224j).
Numbers after ± are expanded uncertainties.

Settings: Liquid

## CCCC[n+]1ccn(C)c1.O=S(=O)([N-]S(=O)(=O)C(F)(F)F)C(F)(F)F
293.49 K, 101.33 kPa
  mass density: 1442.2 ± 2.1 kg/m3
293.49 K, 1000 kPa
  mass density: 1442.8 ± 1.7 kg/m3
293.49 K, 10000 kPa
  mass density: 1449 ± 2.7 kg/m3
293.49 K, 30000 kPa
  mass density: 1462.1 ± 4.9 kg/m3
293.49 K, 40000 kPa
  mass density: 1468.4 ± 6.1 kg/m3
293.5 K, 5000 kPa
  mass density: 1445.6 ± 2.2 kg/m3
293.5 K, 20000 kPa
  mass density: 1455.7 ± 3.8 kg/m3
303.15 K, 101.33 kPa
  mass density: 1433 ± 2.1 kg/m3
312.84 K, 101.33 kPa
  mass density: 1423.9 ± 2.1 kg/m3
322.3 K, 10000 kPa
  mass density: 1422.5 ± 2.6 kg/m3
322.3 K, 40000 kPa
  mass density: 1443.6 ± 5.8 kg/m3
322.31 K, 101.33 kPa
  mass density: 1414.9 ± 2 kg/m3
322.31 K, 1000 kPa
  mass density: 1415.6 ± 1.6 kg/m3
322.31 K, 20000 kPa
  mass density: 1429.8 ± 3.6 kg/m3
322.31 K, 30000 kPa
  mass density: 1436.8 ± 4.7 kg/m3
322.32 K, 5000 kPa
  mass density: 1418.7 ± 2 kg/m3
332.78 K, 101.33 kPa
  mass density: 1405.1 ± 2 kg/m3
342.98 K, 101.33 kPa
  mass density: 1395.5 ± 2 kg/m3
352.31 K, 5000 kPa
  mass density: 1390.9 ± 1.9 kg/m3
352.31 K, 10000 kPa
  mass density: 1395.1 ± 2.4 kg/m3
352.32 K, 20000 kPa
  mass density: 1403 ± 3.4 kg/m3
352.32 K, 30000 kPa
  mass density: 1410.7 ± 4.4 kg/m3
352.32 K, 40000 kPa
  mass density: 1418 ± 5.4 kg/m3
352.33 K, 101.33 kPa
  mass density: 1386.6 ± 1.9 kg/m3
352.33 K, 1000 kPa
  mass density: 1387.5 ± 1.6 kg/m3
373.3 K, 30000 kPa
  mass density: 1392.7 ± 4.2 kg/m3
373.31 K, 5000 kPa
  mass density: 1371.6 ± 1.9 kg/m3
373.31 K, 20000 kPa
  mass density: 1384.5 ± 3.3 kg/m3
373.32 K, 101.33 kPa
  mass density: 1367.1 ± 1.9 kg/m3
373.32 K, 1000 kPa
  mass density: 1368 ± 1.5 kg/m3
373.32 K, 10000 kPa
  mass density: 1376 ± 2.3 kg/m3
373.33 K, 40000 kPa
  mass density: 1400.4 ± 5.2 kg/m3
391.27 K, 1000 kPa
  mass density: 1351.3 ± 1.5 kg/m3
391.28 K, 101.33 kPa
  mass density: 1350.4 ± 1.8 kg/m3
391.28 K, 10000 kPa
  mass density: 1359.8 ± 2.2 kg/m3
391.28 K, 20000 kPa
  mass density: 1368.8 ± 3.1 kg/m3
391.28 K, 30000 kPa
  mass density: 1377.3 ± 4.1 kg/m3
391.28 K, 40000 kPa
  mass density: 1385.4 ± 5.1 kg/m3
391.3 K, 5000 kPa
  mass density: 1355.1 ± 1.8 kg/m3
414.91 K, 20000 kPa
  mass density: 1348.1 ± 3 kg/m3
414.91 K, 40000 kPa
  mass density: 1365.8 ± 4.8 kg/m3
414.92 K, 101.33 kPa
  mass density: 1328.5 ± 1.7 kg/m3
414.92 K, 1000 kPa
  mass density: 1329.5 ± 1.4 kg/m3
414.92 K, 5000 kPa
  mass density: 1333.6 ± 1.7 kg/m3
414.92 K, 10000 kPa
  mass density: 1338.6 ± 2.1 kg/m3
414.92 K, 30000 kPa
  mass density: 1357.2 ± 3.9 kg/m3

## CCOS(=O)(=O)[O-].CCn1cc[n+](C)c1 [1-ethyl-3-methylimidazolium ethyl sulfate]
292.49 K, 101.33 kPa
  mass density: 1242.1 ± 25 kg/m3
293.46 K, 10000 kPa
  mass density: 1250.9 ± 25 kg/m3
293.46 K, 20000 kPa
  mass density: 1259.3 ± 25 kg/m3
293.47 K, 1000 kPa
  mass density: 1242.9 ± 25 kg/m3
293.47 K, 5000 kPa
  mass density: 1246.5 ± 25 kg/m3
293.47 K, 30000 kPa
  mass density: 1267.5 ± 26 kg/m3
293.48 K, 40000 kPa
  mass density: 1275.4 ± 26 kg/m3
302.61 K, 101.33 kPa
  mass density: 1236.7 ± 25 kg/m3
312.47 K, 101.33 kPa
  mass density: 1230.7 ± 25 kg/m3
322.3 K, 101.33 kPa
  mass density: 1224.4 ± 24 kg/m3
322.31 K, 1000 kPa
  mass density: 1225.6 ± 24 kg/m3
322.31 K, 5000 kPa
  mass density: 1229.5 ± 25 kg/m3
322.31 K, 20000 kPa
  mass density: 1243.3 ± 25 kg/m3
322.31 K, 40000 kPa
  mass density: 1260.6 ± 25 kg/m3
322.32 K, 10000 kPa
  mass density: 1234.2 ± 25 kg/m3
322.33 K, 30000 kPa
  mass density: 1252.1 ± 25 kg/m3
332.74 K, 101.33 kPa
  mass density: 1218.4 ± 24 kg/m3
342.42 K, 101.33 kPa
  mass density: 1212.6 ± 24 kg/m3
352.32 K, 101.33 kPa
  mass density: 1206.3 ± 24 kg/m3
352.33 K, 1000 kPa
  mass density: 1207.6 ± 24 kg/m3
352.33 K, 5000 kPa
  mass density: 1211.8 ± 24 kg/m3
352.33 K, 10000 kPa
  mass density: 1216.9 ± 24 kg/m3
352.34 K, 20000 kPa
  mass density: 1226.7 ± 25 kg/m3
352.34 K, 30000 kPa
  mass density: 1236 ± 25 kg/m3
352.34 K, 40000 kPa
  mass density: 1245.2 ± 25 kg/m3
373.36 K, 101.33 kPa
  mass density: 1194.1 ± 24 kg/m3
373.36 K, 1000 kPa
  mass density: 1195 ± 24 kg/m3
373.36 K, 5000 kPa
  mass density: 1199.4 ± 24 kg/m3
373.36 K, 10000 kPa
  mass density: 1204.8 ± 24 kg/m3
373.36 K, 30000 kPa
  mass density: 1225 ± 25 kg/m3
373.36 K, 40000 kPa
  mass density: 1234.4 ± 25 kg/m3
373.37 K, 20000 kPa
  mass density: 1215 ± 24 kg/m3
391.39 K, 101.33 kPa
  mass density: 1183.2 ± 24 kg/m3
391.39 K, 1000 kPa
  mass density: 1184.2 ± 24 kg/m3
391.39 K, 5000 kPa
  mass density: 1188.8 ± 24 kg/m3
391.39 K, 10000 kPa
  mass density: 1194.6 ± 24 kg/m3
391.39 K, 30000 kPa
  mass density: 1215.4 ± 24 kg/m3
391.39 K, 40000 kPa
  mass density: 1225.2 ± 25 kg/m3
391.41 K, 20000 kPa
  mass density: 1205.1 ± 24 kg/m3
414.94 K, 10000 kPa
  mass density: 1180.8 ± 24 kg/m3
414.94 K, 20000 kPa
  mass density: 1192.1 ± 24 kg/m3
414.94 K, 30000 kPa
  mass density: 1202.9 ± 24 kg/m3
414.95 K, 101.33 kPa
  mass density: 1169.1 ± 23 kg/m3
414.95 K, 1000 kPa
  mass density: 1170.2 ± 23 kg/m3
414.95 K, 5000 kPa
  mass density: 1174.9 ± 24 kg/m3
414.95 K, 40000 kPa
  mass density: 1213.2 ± 24 kg/m3

## CCn1cc[n+](C)c1.O=S(=O)([N-]S(=O)(=O)C(F)(F)F)C(F)(F)F
293.49 K, 101.33 kPa
  mass density: 1522.3 ± 2.4 kg/m3
293.49 K, 10000 kPa
  mass density: 1527.8 ± 3.1 kg/m3
293.49 K, 20000 kPa
  mass density: 1533.3 ± 4.4 kg/m3
293.49 K, 30000 kPa
  mass density: 1538.6 ± 5.7 kg/m3
293.49 K, 40000 kPa
  mass density: 1543.6 ± 7 kg/m3
293.5 K, 1000 kPa
  mass density: 1522.9 ± 2 kg/m3
293.5 K, 5000 kPa
  mass density: 1525 ± 2.5 kg/m3
302.68 K, 101.33 kPa
  mass density: 1513.2 ± 2.4 kg/m3
312.64 K, 101.33 kPa
  mass density: 1503.2 ± 2.4 kg/m3
322.3 K, 101.33 kPa
  mass density: 1493.2 ± 2.3 kg/m3
322.3 K, 10000 kPa
  mass density: 1499.5 ± 3 kg/m3
322.3 K, 20000 kPa
  mass density: 1505.3 ± 4.2 kg/m3
322.3 K, 40000 kPa
  mass density: 1516.3 ± 6.6 kg/m3
322.31 K, 5000 kPa
  mass density: 1496.5 ± 2.4 kg/m3
322.31 K, 30000 kPa
  mass density: 1510.9 ± 5.4 kg/m3
322.32 K, 1000 kPa
  mass density: 1494 ± 1.9 kg/m3
332.58 K, 101.33 kPa
  mass density: 1483.2 ± 2.3 kg/m3
342.49 K, 101.33 kPa
  mass density: 1473.6 ± 2.3 kg/m3
352.3 K, 20000 kPa
  mass density: 1476.5 ± 3.9 kg/m3
352.3 K, 40000 kPa
  mass density: 1488.2 ± 6.3 kg/m3
352.31 K, 10000 kPa
  mass density: 1470.2 ± 2.8 kg/m3
352.32 K, 101.33 kPa
  mass density: 1463.6 ± 2.2 kg/m3
352.32 K, 5000 kPa
  mass density: 1467 ± 2.2 kg/m3
352.32 K, 30000 kPa
  mass density: 1482.5 ± 5.1 kg/m3
352.34 K, 1000 kPa
  mass density: 1464.4 ± 1.8 kg/m3
373.3 K, 5000 kPa
  mass density: 1446.5 ± 2.2 kg/m3
373.3 K, 30000 kPa
  mass density: 1462.8 ± 4.9 kg/m3
373.31 K, 1000 kPa
  mass density: 1443.9 ± 1.7 kg/m3
373.32 K, 101.33 kPa
  mass density: 1443.2 ± 2.2 kg/m3
373.32 K, 10000 kPa
  mass density: 1449.9 ± 2.7 kg/m3
373.33 K, 20000 kPa
  mass density: 1456.5 ± 3.8 kg/m3
373.33 K, 40000 kPa
  mass density: 1468.7 ± 6.1 kg/m3
391.25 K, 1000 kPa
  mass density: 1426.3 ± 1.7 kg/m3
391.28 K, 10000 kPa
  mass density: 1432.6 ± 2.6 kg/m3
391.28 K, 30000 kPa
  mass density: 1446 ± 4.8 kg/m3
391.29 K, 101.33 kPa
  mass density: 1425.6 ± 2.1 kg/m3
391.29 K, 5000 kPa
  mass density: 1429 ± 2.1 kg/m3
391.31 K, 20000 kPa
  mass density: 1439.4 ± 3.7 kg/m3
391.31 K, 40000 kPa
  mass density: 1452.3 ± 5.9 kg/m3
414.92 K, 101.33 kPa
  mass density: 1402.4 ± 2 kg/m3
414.92 K, 5000 kPa
  mass density: 1406 ± 2 kg/m3
414.92 K, 10000 kPa
  mass density: 1409.8 ± 2.5 kg/m3
414.92 K, 20000 kPa
  mass density: 1417.2 ± 3.5 kg/m3
414.92 K, 30000 kPa
  mass density: 1424.2 ± 4.6 kg/m3
414.92 K, 40000 kPa
  mass density: 1430.9 ± 5.6 kg/m3
414.93 K, 1000 kPa
  mass density: 1403.1 ± 1.6 kg/m3
